Experimental data as given in paper PMC11355249, “In Silico Identification and Molecular Mechanism of Novel Tyrosinase Inhibitory Peptides Derived from Nacre of Pinctada martensii” (Marine Drugs, 2024).
Read-outs that look alike come from different tables or passages of the source. Peptide text beside a SMILES is read from it.

Assays:
[1] = biological target: T1, tyrosinase (from Mushroom) (Agaricus bisporus, UniProt C7FF04); assay: Inhibition kinetics, Lineweaver-Burk double inverse plot and secondary plots; format: biochemical; conditions: read-out: inhibition constant on the free enzyme, Ki; substrate L-tyrosine; peptide 0, 0.3, 0.6, 1.2 mM
From the text: Based on the observation that the inhibition of tyrosinase by the synthetic peptide AHYYD was reversible, the type of inhibition was further elucidated by constructing a Lineweaver–Burk double inverse plot of the enzymatic reaction rate against the concentration of the substrate (L-tyrosine). In this plot, the intercept with the Y-axis represents 1/Vmax, while the intercept with the X-axis represents −1/Km. […] The slope of the line increased with the rise in synthetic peptide concentration, indicating a mixed type of inhibition. By using the quadratic plotting method, the slopes of the four straight lines in the Lineweaver–Burk double inverse plot were plotted against the synthetic peptide concentration.
Keeping the L-tyrosine concentration constant at 0.5 mg/mL, the concentrations of the synthetic peptide and tyrosinase were varied. The change in the OD475 absorbance value was continuously monitored at 37 °C after mixing. The enzyme concentration is plotted on the horizontal axis, while the rate of absorbance change is plotted on the vertical axis. Under the conditions of varying the peptide concentration and substrate concentration while keeping the tyrosinase solution constant, the reciprocal of the substrate concentration was plotted on the horizontal axis, and the reciprocal of the rate of absorbance change was plotted on the vertical ax.

[2] = test system: B16F10 cells; assay: Cell viability, CCK-8 assay; format: cell-based, mouse; conditions: 15–1200 μM, 48 h
Experimental: The B16F10 cells were obtained from FengHui Biotechnology Co., Ltd. (Hunan, China). B16F10 cell cultures from generations 10–25 were grown in medium (DMEM supplemented with 10% fetal bovine serum, 1% antibiotic–antifungal solution) in a 5% CO2 incubator at 37 °C.
Cell viability was assessed using the Cell Counting Kit-8 (CCK-8) assay. During the logarithmic growth phase, 100 µL of cell suspension was dispensed into 96-well plates, with 3000 cells per well, and the supernatant was removed after incubation at 37 °C for 24 h. Wells containing 100 µL of medium served as blank controls. Determination of viability after 48 h of sample treatment.

[3] = biological target: T1, tyrosinase (from Mushroom); format: biochemical; conditions: read-out: IC50 (mM), tyrosinase activity
Experimental: (§1) We followed the method of Yu, with a slight modification. L-tyrosine solution (0.5 mg/mL), sample solution, and PBS buffer were sequentially added into the 96-well plate, thoroughly mixed, and then incubated at 37 °C for 10 min, then 20 μL of tyrosinase solution (500 U/mL) was added into each well, followed by immediate placement into the enzyme marker after the reaction at 37 °C for (10 min ± 5 s). The results were analyzed at 475 nm. DPPH and ABTS free-radical-scavenging capacity assays were conducted using kits from Grace Biotechnology Co., Ltd. (Jiangsu, China).

[4] = ABTS free-radical-scavenging capacity assay (kit); conditions: synthetic peptides
Experimental: as §1

[5] = test system: B16F10 cells; assay: Antioxidant enzyme activity (CAT, GSH-Px, SOD) by kit; format: cell-based, mouse; conditions: B16F10, positive control 350 μM
Experimental: (§2) The cell culture and treatment methods were the same as those described in Section 3.12. The activities of catalase (CAT), glutathione peroxidase (GSH-Px), and superoxide dismutase (SOD) were determined using the assay kit from Nanjing Jianjian Bioengineering Research Institute (Nanjing, China). The ROS content was determined using the method provided by Biyuntian Bio-Technology Company Limited (Shanghai, China).

[6] = test system: tyrosinase activity in B16F10 cells; assay: Intracellular tyrosinase activity (L-DOPA, 475 nm); format: cell-based, mouse; conditions: B16F10, Kojic acid 350 μM, 48 h
Experimental: The cells in the logarithmic growth phase were seeded at a density of 2 × 10^5 cells per well in 6-well plates. After 24 h of culture, the supernatant was removed. […] After 48 h of incubation, the cells were lysed, and the cell lysates were centrifuged at 12,000 rpm for 10 min. The reaction mixture consisted of 50 µL of cell lysate supernatant, 50 µL of 1 mg/mL L-DOPA, and 50 µL of PBS buffer. The mixture was incubated at 37 °C for 1 h. The […] formation level was then measured spectrophotometrically at 475 nm. Tyrosinase activity was expressed as a percentage of the blank control.

[7] = test system: melanin content of B16F10 cells; assay: Melanin content determination; format: cell-based, mouse; conditions: B16F10, Kojic acid 350 μM, 48 h
Experimental: The cell culture stage for melanin content determination was as follows: the cells were washed twice with PBS buffer after 48 h of peptide treatment. Trypsin digestion was performed, and the cells were collected. The […] was removed by centrifugation for 5 min and the precipitate was lysed by dissolving it in 1 mol/L NaOH containing 10% DMSO for 1 h at 80 °C. Subsequently, the cell lysate was centrifuged at 12,000 rpm for 10 min. A total of 200 µL of the supernatant was transferred to a 96-well plate, and the absorbance was measured at 405 nm. The melanin content was then expressed as a percentage of the control group.

[8] = test system: B16F10 cells; assay: Intracellular ROS content; format: cell-based, mouse; conditions: B16F10, 75 μM
Experimental: as §2

T1 sequence (C7FF04 1-392): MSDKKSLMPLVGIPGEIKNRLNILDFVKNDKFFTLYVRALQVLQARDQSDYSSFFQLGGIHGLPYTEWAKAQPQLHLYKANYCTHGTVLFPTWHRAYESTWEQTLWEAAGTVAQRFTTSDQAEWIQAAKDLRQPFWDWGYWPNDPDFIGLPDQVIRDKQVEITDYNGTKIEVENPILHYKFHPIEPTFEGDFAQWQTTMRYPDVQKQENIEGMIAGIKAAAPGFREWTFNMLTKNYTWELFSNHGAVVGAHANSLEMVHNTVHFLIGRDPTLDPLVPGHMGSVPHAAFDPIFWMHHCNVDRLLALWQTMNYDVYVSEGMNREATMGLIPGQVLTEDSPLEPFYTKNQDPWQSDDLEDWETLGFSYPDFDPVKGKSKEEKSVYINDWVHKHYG

Structure (SMILES): C[C@H](N)C(=O)N[C@@H](Cc1c[nH]cn1)C(=O)N[C@@H](Cc1ccc(O)cc1)C(=O)N[C@@H](Cc1ccc(O)cc1)C(=O)N[C@@H](CC(=O)O)C(=O)O [AHYYD, Ala-His-Tyr-Tyr-Asp] (H-AHYYD-OH)
- Ki [1]: 601 µM
- viability of B16F10 cells compared to the control group [2]: no significant difference
- IC50 [3]: 2.01 ± 0.088 mM

Structure (SMILES): C[C@@H](O)[C@H](N)C(=O)N[C@@H](Cc1ccccc1)C(=O)N[C@@H](CO)C(=O)NCC(=O)N[C@@H](CC(N)=O)C(=O)N[C@@H](Cc1ccc(O)cc1)C(=O)N1CCC[C@H]1C(=O)O [TFSGNYP, Thr-Phe-Ser-Gly-Asn-Tyr-Pro] (H-TFSGNYP-OH)
- IC50 [3]: > 5 mM
- IC50 for ABTS clearance [4]: 278.5 µg/mL

Structure (SMILES): O=c1cc(CO)occ1O [Kojic acid]
- increase of GSH-Px activity [5]: 52.85%
- increase of SOD activity [5]: 68.92%
- reduction of intracellular tyrosinase activity [6]: 19.51%
- reduction of intracellular melanin content [7]: 18.54%

Structure (SMILES): CC[C@H](C)[C@H](NC(=O)[C@@H]1CCCN1C(=O)[C@@H](N)CCCCN)C(=O)N[C@@H](Cc1c[nH]c2ccccc12)C(=O)N[C@H](C(=O)O)[C@@H](C)O [KPIWT, Lys-Pro-Ile-Trp-Thr] (H-KPIWT-OH; N-terminus and C-terminus assumed)
- IC50 ([3]; synthetic peptides, Kojic acid positive control): > 10 mM

Structure (SMILES): CC1=C(/C=C/C(C)=C/C=C/C(C)=C/C(=O)O)C(C)(C)CCC1 [tretinoin]
- intracellular ROS levels, % of the untreated group [8]: 65.44%
